Biological target: Alpha-2 adrenergic receptor (Rattus norvegicus)
Assay: Compound was tested for its binding affinity against Alpha-2 adrenergic receptor

- Ki: 0.302 µM
SMILES: CCCN(CCCCCCN1CCC[C@@H]1Cc1ccc(O)c(O)c1)CCc1ccc(O)c(O)c1

Reference: BindingDB's records for doi:10.7270/Q2930WC4 (n/a, 1995)
